According to ChEMBL document CHEMBL1201862, “PubChem BioAssay data set” (2004):
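In this assay, cells in 96-well plates receive the compound at five concentrations for 48 hours. Endpoints are linearly interpolated between the surrounding concentrations. Here, GI50 denotes the concentration required for 50% inhibition of growth.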 Activity calls are given as the source filed them. Cut-off read from the data, not from the text of the source: active = GI50 up to about 1.1 µM and inactive = higher.

Legend:
Assay in all cases: DTP human tumour cell line panel, 48 h
SNB-78 = tested on: SNB-78
HCT-15 = tested on: HCT-15
SK-OV-3 = tested on: SK-OV-3
MOLT-4 = tested on: MOLT-4
SK-MEL-28 = tested on: SK-MEL-28
COLO 205 = tested on: COLO 205
EKVX = tested on: EKVX
SF-539 = tested on: SF-539
SK-MEL-2 = tested on: SK-MEL-2
DMS-114 = tested on: DMS-114
SK-MEL-5 = tested on: SK-MEL-5
NCI-H460 = tested on: NCI-H460
SN12C = tested on: SN12C
SW-620 = tested on: SW-620
786-0 = tested on: 786-0
IGROV-1 = tested on: IGROV-1
HCC 2998 = tested on: HCC 2998
KM12 = tested on: KM12
RXF 393 = tested on: RXF 393
HOP-62 = tested on: HOP-62
HOP-18 = tested on: HOP-18
OVCAR-8 = tested on: OVCAR-8
CCRF-CEM = tested on: CCRF-CEM
OVCAR-3 = tested on: OVCAR-3
OVCAR-5 = tested on: OVCAR-5
A549 = tested on: A549
HL-60 = tested on: HL-60
UACC-62 = tested on: UACC-62
KM-20L2 = tested on: KM-20L2
UACC-257 = tested on: UACC-257
M19-MEL = tested on: M19-MEL
SNB-19 = tested on: SNB-19
K562 = tested on: K562
NCI-H226 = tested on: NCI-H226
U-251 = tested on: U-251
Malme-3M = tested on: Malme-3M
UO-31 = tested on: UO-31
NCI-H522 = tested on: NCI-H522
M14 = tested on: M14
SNB-75 = tested on: SNB-75
SF-268 = tested on: SF-268
TK-10 = tested on: TK-10
RPMI-8226 = tested on: RPMI-8226
SF-295 = tested on: SF-295
NCI-H23 = tested on: NCI-H23
ACHN = tested on: ACHN
A498 = tested on: A498
LXFL 529 = tested on: LXFL 529
LOX IMVI = tested on: LOX IMVI
HCT-116 = tested on: HCT-116
OVCAR-4 = tested on: OVCAR-4
DLD-1 = tested on: DLD-1
DMS-273 = tested on: DMS-273
HT-29 = tested on: HT-29
HOP-92 = tested on: HOP-92
CAKI-1 = tested on: CAKI-1

O=C(COc1ccc2c(=O)cc(-c3ccccc3)oc2c1)N1CCN(c2ccccc2)CC1
GI50 (SNB-78): > 100 µM (inactive) | GI50 (HCT-15): 41.2 µM | GI50 (SK-OV-3): > 100 µM (inactive) | GI50 (MOLT-4): 11.1 µM (inactive) | GI50 (SK-MEL-28): 49.8 µM (inactive) | GI50 (COLO 205): 37 µM (inactive) | GI50 (EKVX): 28.4 µM (inactive) | GI50 (SF-539): 71.1 µM (inactive) | GI50 (SK-MEL-2): 21.1 µM (inactive) | GI50 (DMS-114): 24.5 µM (inactive) | GI50 (SK-MEL-5): 25.4 µM (inactive) | GI50 (NCI-H460): 31.8 µM (inactive) | GI50 (SN12C): 41.4 µM (inactive) | GI50 (SW-620): 83.8 µM (inactive) | GI50 (786-0): 41 µM (inactive) | GI50 (IGROV-1): > 100 µM (inactive) | GI50 (HCC 2998): 33.1 µM (inactive) | GI50 (KM12): 60.5 µM (inactive) | GI50 (RXF 393): 16.7 µM (inactive) | GI50 (HOP-62): 78.7 µM (inactive) | GI50 (HOP-18): 41.9 µM (inactive) | GI50 (OVCAR-8): 26.4 µM (inactive) | GI50 (CCRF-CEM): 24.7 µM (inactive) | GI50 (OVCAR-3): 42.9 µM (inactive) | GI50 (OVCAR-5): 34.6 µM (inactive) | GI50 (A549): 39.2 µM (inactive) | GI50 (HL-60): 15.8 µM (inactive) | GI50 (UACC-62): 57.9 µM (inactive) | GI50 (KM-20L2): 37.7 µM (inactive) | GI50 (UACC-257): 43 µM (inactive) | GI50 (M19-MEL): 62.2 µM (inactive) | GI50 (SNB-19): 36.6 µM (inactive) | GI50 (K562): 18 µM (inactive) | GI50 (NCI-H226): 72.4 µM (inactive) | GI50 (U-251): 38.5 µM (inactive) | GI50 (Malme-3M): 51.6 µM (inactive) | GI50 (UO-31): 19.8 µM (inactive) | GI50 (NCI-H522): 18.8 µM (inactive) | GI50 (M14): 76.6 µM (inactive) | GI50 (SNB-75): 27.5 µM (inactive) | GI50 (SF-268): 46.2 µM (inactive) | GI50 (TK-10): 44.6 µM (inactive) | GI50 (RPMI-8226): 14.2 µM (inactive) | GI50 (SF-295): 52.6 µM (inactive) | GI50 (NCI-H23): 46.1 µM (inactive) | GI50 (ACHN): 50.8 µM (inactive) | GI50 (A498): > 10 µM (inactive) | GI50 (LXFL 529): 34.1 µM (inactive) | GI50 (LOX IMVI): 57.3 µM (inactive) | GI50 (HCT-116): 71.8 µM (inactive)

CC12CCC3(C1)[C@H](CC2=O)C[C@@H](OC(=O)c1ccccc1)C1C(C)(CO)CCC[C@@]13C (some centres not stated)
GI50 (SNB-78): 34 µM (inactive) | GI50 (HCT-15): 1.5 µM | GI50 (SK-OV-3): 17.1 µM (inactive) | GI50 (MOLT-4): 1.54 µM (inactive) | GI50 (OVCAR-4): 1.44 µM (inactive) | GI50 (SK-MEL-28): 13.3 µM (inactive) | GI50 (COLO 205): 4.35 µM (inactive) | GI50 (DLD-1): 2.48 µM (inactive) | GI50 (EKVX): 3.96 µM (inactive) | GI50 (SF-539): 6.08 µM (inactive) | GI50 (SK-MEL-2): 8.32 µM (inactive) | GI50 (DMS-114): 0.156 µM (active) | GI50 (DMS-273): 0.625 µM (active) | GI50 (SK-MEL-5): < 0.01 µM (active) | GI50 (NCI-H460): 1.05 µM (active) | GI50 (SN12C): 4.35 µM (inactive) | GI50 (HT-29): 3.56 µM (inactive) | GI50 (SW-620): 2.37 µM (inactive) | GI50 (786-0): 1.82 µM (inactive) | GI50 (IGROV-1): 6.49 µM (inactive) | GI50 (HCC 2998): 1.97 µM (inactive) | GI50 (KM12): 2.9 µM (inactive) | GI50 (RXF 393): 1.71 µM (inactive) | GI50 (HOP-62): 5.41 µM (inactive) | GI50 (HOP-18): 26.7 µM (inactive) | GI50 (OVCAR-8): 3.13 µM (inactive) | GI50 (CCRF-CEM): 2.29 µM (inactive) | GI50 (OVCAR-3): 0.24 µM (active) | GI50 (OVCAR-5): 2 µM (inactive) | GI50 (A549): 3.46 µM (inactive) | GI50 (HL-60): 0.327 µM (active) | GI50 (UACC-62): 0.0288 µM (active) | GI50 (KM-20L2): 1.82 µM (inactive) | GI50 (HOP-92): 3.65 µM (inactive) | GI50 (UACC-257): 0.149 µM (active) | GI50 (M19-MEL): 3.4 µM (inactive) | GI50 (SNB-19): 5.86 µM (inactive) | GI50 (K562): 0.416 µM (active) | GI50 (NCI-H226): 1.6 µM (inactive) | GI50 (U-251): 2.38 µM (inactive) | GI50 (Malme-3M): 9.42 µM (inactive) | GI50 (UO-31): 4.15 µM (inactive) | GI50 (NCI-H522): 2.02 µM (inactive) | GI50 (M14): 3.61 µM (inactive) | GI50 (SNB-75): 9.14 µM (inactive) | GI50 (SF-268): 5.11 µM (inactive) | GI50 (TK-10): > 21.9 µM (inactive) | GI50 (RPMI-8226): 0.746 µM (active) | GI50 (SF-295): 0.322 µM (active) | GI50 (NCI-H23): 0.681 µM (active) | GI50 (ACHN): 0.342 µM (active) | GI50 (CAKI-1): 0.861 µM (active) | GI50 (A498): 3.12 µM (inactive) | GI50 (LXFL 529): 0.6 µM (active) | GI50 (LOX IMVI): 2.17 µM (inactive) | GI50 (HCT-116): 2.22 µM (inactive)

O=[N+]([O-])c1ccc(/C=C/c2csnn2)cc1
GI50 (SNB-78): > 100 µM (inactive) | GI50 (HCT-15): > 100 µM | GI50 (SK-OV-3): > 100 µM (inactive) | GI50 (MOLT-4): > 100 µM (inactive) | GI50 (OVCAR-4): > 100 µM (inactive) | GI50 (SK-MEL-28): > 100 µM (inactive) | GI50 (DLD-1): > 100 µM (inactive) | GI50 (EKVX): > 100 µM (inactive) | GI50 (SF-539): > 100 µM (inactive) | GI50 (SK-MEL-2): > 100 µM (inactive) | GI50 (DMS-114): > 100 µM (inactive) | GI50 (SK-MEL-5): > 100 µM (inactive) | GI50 (NCI-H460): > 100 µM (inactive) | GI50 (SN12C): > 100 µM (inactive) | GI50 (HT-29): > 100 µM (inactive) | GI50 (SW-620): > 100 µM (inactive) | GI50 (786-0): > 100 µM (inactive) | GI50 (IGROV-1): > 100 µM (inactive) | GI50 (HCC 2998): > 100 µM (inactive) | GI50 (KM12): > 100 µM (inactive) | GI50 (RXF 393): > 100 µM (inactive) | GI50 (HOP-62): > 100 µM (inactive) | GI50 (HOP-18): > 100 µM (inactive) | GI50 (OVCAR-8): > 100 µM (inactive) | GI50 (CCRF-CEM): > 100 µM (inactive) | GI50 (OVCAR-3): > 100 µM (inactive) | GI50 (OVCAR-5): > 100 µM (inactive) | GI50 (A549): > 100 µM (inactive) | GI50 (HL-60): > 100 µM (inactive) | GI50 (UACC-62): > 100 µM (inactive) | GI50 (HOP-92): 70.5 µM (inactive) | GI50 (UACC-257): > 100 µM (inactive) | GI50 (M19-MEL): > 100 µM (inactive) | GI50 (SNB-19): > 100 µM (inactive) | GI50 (K562): > 100 µM (inactive) | GI50 (NCI-H226): > 100 µM (inactive) | GI50 (U-251): > 100 µM (inactive) | GI50 (Malme-3M): > 100 µM (inactive) | GI50 (UO-31): > 100 µM (inactive) | GI50 (NCI-H522): > 100 µM (inactive) | GI50 (M14): > 100 µM (inactive) | GI50 (SF-268): > 100 µM (inactive) | GI50 (TK-10): > 100 µM (inactive) | GI50 (RPMI-8226): > 100 µM (inactive) | GI50 (SF-295): > 100 µM (inactive) | GI50 (NCI-H23): > 100 µM (inactive) | GI50 (ACHN): > 100 µM (inactive) | GI50 (CAKI-1): > 100 µM (inactive) | GI50 (LXFL 529): > 100 µM (inactive) | GI50 (LOX IMVI): > 100 µM (inactive) | GI50 (HCT-116): > 100 µM (inactive)
